Test [1] has as its system Escherichia coli MB5747 (LS 883, tolC). Description: microbe, parasite or virus in culture. In kind it is cell-based. The note with it: Escherichia coli, read-out: E. coli LS883 tolC (MIC), MHII broth; * = some reduction of growth versus control at […].
Test [2] deals with T1, S. aureus DnaE (DNA polymerase III α-subunit homolog from Staphylococcus aureus) (Staphylococcus aureus, UniProt Q5HF71).
T1 construct: SaDnaE (S. aureus DnaE residues 1-1065); 6xHis (N); made in house; host or cells: E. coli BL21-AI
T1 sequence (Q5HF71 1-1065): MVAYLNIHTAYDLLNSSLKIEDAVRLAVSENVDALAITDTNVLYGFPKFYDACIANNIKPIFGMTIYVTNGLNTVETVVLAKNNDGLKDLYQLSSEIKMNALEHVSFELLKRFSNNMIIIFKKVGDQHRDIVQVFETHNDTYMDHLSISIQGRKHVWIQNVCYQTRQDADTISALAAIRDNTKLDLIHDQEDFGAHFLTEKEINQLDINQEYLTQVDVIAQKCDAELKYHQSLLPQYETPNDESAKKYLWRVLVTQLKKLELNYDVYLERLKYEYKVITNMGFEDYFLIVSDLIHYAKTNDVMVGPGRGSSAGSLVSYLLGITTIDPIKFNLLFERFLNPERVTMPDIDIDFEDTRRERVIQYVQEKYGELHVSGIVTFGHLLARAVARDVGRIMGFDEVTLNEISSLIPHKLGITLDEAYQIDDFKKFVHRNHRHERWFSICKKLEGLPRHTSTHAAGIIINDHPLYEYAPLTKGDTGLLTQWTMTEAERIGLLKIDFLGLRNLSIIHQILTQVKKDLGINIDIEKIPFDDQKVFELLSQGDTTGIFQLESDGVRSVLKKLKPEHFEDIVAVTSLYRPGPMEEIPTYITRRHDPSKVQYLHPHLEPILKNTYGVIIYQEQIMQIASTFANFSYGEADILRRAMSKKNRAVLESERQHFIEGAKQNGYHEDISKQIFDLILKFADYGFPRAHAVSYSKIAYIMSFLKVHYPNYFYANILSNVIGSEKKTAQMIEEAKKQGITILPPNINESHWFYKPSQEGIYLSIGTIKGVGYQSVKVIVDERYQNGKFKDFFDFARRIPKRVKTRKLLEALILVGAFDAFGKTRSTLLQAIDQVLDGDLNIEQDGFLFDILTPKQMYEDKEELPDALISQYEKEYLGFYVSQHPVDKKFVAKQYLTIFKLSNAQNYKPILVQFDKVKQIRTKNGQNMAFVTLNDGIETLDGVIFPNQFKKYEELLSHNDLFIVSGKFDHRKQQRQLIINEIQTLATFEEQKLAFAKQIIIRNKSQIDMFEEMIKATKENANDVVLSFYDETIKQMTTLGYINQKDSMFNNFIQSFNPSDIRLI
Description: biochemical. It is filed as biochemical. The method in brief:
(§1)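 3H-dTTP (0.011 mM) incorporation into DNase I-activated calf thymus DNA, alongside the other three dNTPs at 0.025 mM, measured by filter counting after TCA precipitation. Reactions ran 30 min at 30° C., started with purified N-His DnaE: 0.8 μg/ml for E. coli, 0.05 μg/ml for S. aureus.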

For test [3], the system named is Staphylococcus aureus MB6266 (MRSA COL). Description: Nargenicin antibacterial assay (MIC), S. aureus. In kind it is cell-based. The note with it: Staphylococcus aureus, MRSA, read-out: S. aureus COL (MIC), MHII broth + 50% human serum; * = some reduction of growth versus control at […].
The target of test [4] is T2, E. coli DnaE (DNA polymerase III α-subunit from Escherichia coli) (Escherichia coli, UniProt P10443).
T2 construct: EcDnaE (E. coli DnaE residues 1-1160); 6xHis (N); made in house; host or cells: E. coli BL21(DE3)
Description: In vitro DnaE single enzyme assay (E. coli). It is filed as biochemical. The method in brief: as §1

For test [5], the system named is Pseudomonas aeruginosa MB5890 (CB1101, efflux-deleted). Description: microbe, parasite or virus in culture. In kind it is cell-based. The note with it: Pseudomonas aeruginosa, read-out: P. aeruginosa MB5890 efflux-del (MIC), MHII broth; * = some reduction of growth versus control at […].
Test [6] has as its system Streptococcus pneumoniae MB6357 (CL 2883). Description: Nargenicin antibacterial assay (MIC), S. pneumoniae. It is filed as cell-based. The note with it: Streptococcus pneumoniae, read-out: S. pneumoniae MB2883 (MIC), Isosensitest broth; * = some reduction of growth versus control at […].
The mark [7] stands for this setting: read-out: E. coli DnaE IC50 (converted).
Where [8] appears, read: read-out: S. aureus DnaE IC50 (converted).

Each structure is given as a SMILES string. ≈ marks a conversion by molar mass, not a printed value. Like-named read-outs stand apart in the source and are kept apart here.

T2 sequence (P10443 whole entry, the tested form may be a part): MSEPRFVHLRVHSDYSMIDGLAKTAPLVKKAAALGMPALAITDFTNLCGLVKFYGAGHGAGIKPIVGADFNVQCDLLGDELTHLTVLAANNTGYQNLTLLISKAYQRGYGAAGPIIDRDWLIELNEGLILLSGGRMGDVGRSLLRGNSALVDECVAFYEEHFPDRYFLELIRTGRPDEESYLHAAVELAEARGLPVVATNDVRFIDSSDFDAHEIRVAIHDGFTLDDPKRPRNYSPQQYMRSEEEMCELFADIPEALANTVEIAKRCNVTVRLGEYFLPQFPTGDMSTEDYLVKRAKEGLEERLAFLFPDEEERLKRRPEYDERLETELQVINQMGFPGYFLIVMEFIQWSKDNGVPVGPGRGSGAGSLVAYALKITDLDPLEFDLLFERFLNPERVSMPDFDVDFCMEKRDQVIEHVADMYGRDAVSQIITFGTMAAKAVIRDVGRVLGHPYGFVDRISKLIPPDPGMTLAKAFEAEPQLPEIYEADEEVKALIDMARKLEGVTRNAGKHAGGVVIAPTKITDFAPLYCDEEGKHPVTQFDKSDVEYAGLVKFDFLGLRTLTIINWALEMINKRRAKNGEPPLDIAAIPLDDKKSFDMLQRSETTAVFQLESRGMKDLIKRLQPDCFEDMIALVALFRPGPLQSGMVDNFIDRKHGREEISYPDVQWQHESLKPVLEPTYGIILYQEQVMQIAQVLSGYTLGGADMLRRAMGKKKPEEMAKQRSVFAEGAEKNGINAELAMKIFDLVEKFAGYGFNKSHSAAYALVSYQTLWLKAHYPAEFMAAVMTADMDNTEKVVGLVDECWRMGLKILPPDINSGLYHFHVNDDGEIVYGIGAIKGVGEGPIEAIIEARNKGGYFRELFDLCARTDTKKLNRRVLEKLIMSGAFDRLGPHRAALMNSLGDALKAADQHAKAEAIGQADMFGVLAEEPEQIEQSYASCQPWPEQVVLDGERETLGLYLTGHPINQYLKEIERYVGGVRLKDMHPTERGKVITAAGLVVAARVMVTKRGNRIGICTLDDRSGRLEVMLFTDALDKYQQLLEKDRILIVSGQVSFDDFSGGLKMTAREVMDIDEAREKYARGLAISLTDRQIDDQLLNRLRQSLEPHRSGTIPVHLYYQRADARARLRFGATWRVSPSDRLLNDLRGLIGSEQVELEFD

One may read the IC50 as the concentration at which inhibition is half-maximal. In the case of `C=C1C[C@@H]2C[C@H](OC)C(=O)O[C@H]([C@@H](C)O)[C@H](C)/C=C(\C)[C@]23O[C@H]2[C@H](OC(=O)c4ccc[nH]4)[C@H](C)[C@@H](O)[C@@H]3[C@@H]12` [Example 200], the MIC in test [1] is 2 µg/mL (≈ 3.78 µM); in test [3] it was 8 µg/mL; in test [5], 64 µg/mL (≈ 121 µM); in test [6], 128 µg/mL (≈ 242 µM). The IC50 was 0.0113 µM in test [2] (S. aureus DnaE IC50) and > 189 µM in test [4] (setting [7]).
As for `CO[C@H]1C[C@H]2C=C[C@H]3[C@H]4O[C@]2(/C(C)=C/[C@@H](C)[C@@H]([C@@H](C)OC(=O)NCCN(C)C)OC1=O)[C@@H]3[C@H](O)[C@@H](C)[C@H]4OC(=O)c1ccc[nH]1` [Example 5], the MIC in test [1] is 16 µg/mL (≈ 25.4 µM); in test [3] it was 32 µg/mL; in test [5], > 128 µg/mL; in test [6], > 128 µg/mL. The figures for the IC50 in test [2] (setting [8]) and in test [4] (E. coli DnaE IC50) were 0.0143 µM and > 159 µM, respectively.
For the compound `CO[C@H]1C[C@H]2C=CC3C4[C@H](O)[C@@H](C)[C@@H](OC(=O)c5ccc[nH]5)[C@@H]3O[C@]42/C(C)=C/[C@@H](C)[C@@H]([C@@H](C)OC(=O)C(=O)OCCN2CCCCC2)OC1=O.O=C(O)C(F)(F)F` [Example 213], the MIC was 4 µg/mL in test [1], 4 µg/mL in test [3], 128 µg/mL in test [5] and > 128 µg/mL in test [6]. The figures for the IC50 in test [2] (S. aureus DnaE IC50) and in test [4] (setting [7]) were < 0.00738 µM and 4.43 µM, respectively.
As for `COC1CC2C=CC3C4OC2(C(C)=CC(C)C(C(C)OC(=O)NCCCN2CCN(C)CC2)OC1=O)C3C(O)C(C)C4OC(=O)c1ccc[nH]1` (stereo not drawn) [Example 25], the MIC in test [1] was 32 µg/mL (≈ 45.8 µM); in test [3], 32 µg/mL; in test [5], > 128 µg/mL; in test [6], > 128 µg/mL. The IC50 is 0.03 µM in test [2] (setting [8]) and > 143 µM in test [4] (E. coli DnaE IC50).
For `CO[C@H]1CC2C=C[C@H]3[C@H]4O[C@]2(/C(C)=C/[C@@H](C)[C@@H]([C@@H](C)O)OC1=O)[C@@H]3[C@H](OC(N)=O)[C@@H](C)[C@H]4OC(=O)c1ccc[nH]1` (stereo partly drawn) [Example 38, (3R,4S,7S,10aR,11R,12R,13R,14R,14aS,14bS,E)-14-(carbamoyloxy)-4-((R)-1-hydroxyethyl)-7-methoxy-1,3,13-trimethyl-6-oxo-3,4,6,7,8,8a,10a,11,12,13,14,14 a-dodecahydro-11,14b-epoxynaphtho[2,1-e]oxecin-12-yl 1H-pyrrole-2-carboxylate], the MIC in test [1] was 16 µg/mL (≈ 28.6 µM); in test [3] it was 32 µg/mL; in test [5], > 128 µg/mL; in test [6], 128 µg/mL (≈ 229 µM). For the same compound, the IC50 in test [2] (S. aureus DnaE IC50) was 0.0394 µM; in test [4] (setting [7]), ~197 µM.
As to `CO[C@H]1C[C@H]2C[C@H](O)[C@H]3[C@H]4O[C@]2(/C(C)=C/[C@@H](C)[C@@H]([C@@H](C)O)OC1=O)[C@@H]3[C@H](O)[C@@H](C)[C@H]4OC(=O)c1ccc[nH]1` [Example 192], the MIC in test [1], in test [3], in test [5] and in test [6] was > 128 µg/mL each time. For the same compound, the IC50 in test [2] (S. aureus DnaE IC50) was 18.7 µM; in test [4] (setting [7]), > 187 µM.
Turning to `CO[C@H]1C[C@H]2C=C[C@@H]3[C@H]4[C@H](O)[C@@H](C)C(=O)[C@@H]3O[C@]42/C(C)=C/[C@@H](C)[C@@H]([C@@H](C)O)OC1=O` [Example 202], the MIC in test [1] was 128 µg/mL (≈ 304 µM); in test [3], > 128 µg/mL; in test [5], > 128 µg/mL; in test [6], > 128 µg/mL. The results for the IC50 in test [2] (S. aureus DnaE IC50) and in test [4] (setting [7]) were 78.5 µM and > 238 µM, respectively.
On to `CO[C@H]1CC2C=C[C@H]3[C@H]4O[C@]2(/C(C)=C/[C@@H](C)[C@@H](C(C)=O)OC1=O)[C@@H]3[C@H](O)[C@@H](C)[C@H]4OC(=O)c1ccc[nH]1` (stereo partly drawn) [Example 177], for which the MIC was 0.5 µg/mL (≈ 0.974 µM) in test [1], 1 µg/mL in test [3], 8 µg/mL (≈ 15.6 µM) in test [5] and > 128 µg/mL in test [6]. Also, the results for the IC50 in test [2] (S. aureus DnaE IC50) and in test [4] (setting [7]) were < 0.0117 µM and 8.76 µM, respectively.
`CO[C@H]1C[C@H]2C=C[C@H]3[C@H]4O[C@]2(/C(C)=C/[C@@H](C)[C@@H]([C@@H](C)OC(=O)OCCO)OC1=O)[C@@H]3[C@H](O)[C@@H](C)[C@H]4OC(=O)c1ccc[nH]1` [Example 30]: the MIC in test [1] stood at 1 µg/mL (≈ 1.66 µM); in test [3] it was 0.5 µg/mL; in test [5], 16 µg/mL (≈ 26.5 µM); in test [6], 64 µg/mL (≈ 106 µM). The IC50 was < 0.00994 µM in test [2] (S. aureus DnaE IC50) and 116 µM in test [4] (setting [7]).
As for `C=CC[C@H]1OC(=O)[C@@H](OC)C[C@H]2C=C[C@H]3[C@H]4O[C@]2(/C(C)=C/[C@H]1C)[C@@H]3[C@H](O)[C@@H](C)[C@H]4OC(=O)c1ccc[nH]1` [Example 55], the MIC in test [1] is 2 µg/mL (≈ 3.91 µM); in test [3], 2 µg/mL; in test [5], 32 µg/mL (≈ 62.5 µM); in test [6], > 64 µg/mL. In addition, the concentration for half-maximal inhibition (IC50) in test [2] (S. aureus DnaE IC50) was < 0.0117 µM; in test [4] (setting [7]), 11.7 µM.
As to `COC(=O)/C=C/c1c[nH]c(C(=O)O[C@@H]2[C@H](C)[C@@H](O)[C@@H]3[C@H]4C=CC5C[C@H](OC)C(=O)O[C@H](C(C)O)[C@H](C)/C=C(\C)[C@]53O[C@H]42)c1` (stereo partly drawn) [Example 166], the MIC in test [1] was 64 µg/mL (≈ 107 µM); in test [3], > 64 µg/mL; in test [5], > 64 µg/mL; in test [6], > 64 µg/mL. In addition, the IC50 was 0.3 µM in test [2] (S. aureus DnaE IC50) and > 83.4 µM in test [4] (setting [7]).
As to `CO[C@H]1C[C@H]2C=C[C@H]3[C@H]4O[C@]2(/C(C)=C/[C@@H](C)[C@@H]([C@@H](C)OC(=O)CCl)OC1=O)[C@@H]3[C@H](O)[C@@H](C)[C@H]4OC(=O)c1ccc[nH]1` [Example 59], the MIC in test [1] turned out to be 0.25 µg/mL (≈ 0.422 µM); in test [3], 0.25 µg/mL; in test [5], 16 µg/mL (≈ 27 µM); in test [6], 64 µg/mL (≈ 108 µM). Moreover, the IC50 was < 0.0101 µM in test [2] (S. aureus DnaE IC50) and 16.9 µM in test [4] (setting [7]).
With `CO[C@H]1CC2C=C[C@H]3[C@H]4O[C@]2(/C(C)=C/[C@@H](C)[C@@H](/C(C)=N\O)OC1=O)[C@@H]3[C@H](O)[C@@H](C)[C@H]4OC(=O)c1ccc[nH]1` (stereo partly drawn) [Example 180], the MIC in test [1] is 4 µg/mL (≈ 7.57 µM); in test [3] it was 4 µg/mL; in test [5] it was 64 µg/mL (≈ 121 µM); in test [6] it was 32 µg/mL (≈ 60.5 µM). In addition, the half-inhibitory concentration (IC50) in test [2] (S. aureus DnaE IC50) was < 0.0114 µM; in test [4] (setting [7]), 11.4 µM.
With `CO[C@H]1C[C@H]2C=C[C@H]3[C@H]4O[C@]2(/C(C)=C/[C@@H](C)[C@@H]([C@@H](C)O)OC1=O)[C@@H]3C(=O)C(C)[C@H]4C#N` (stereo partly drawn) [Example 176, (3R,4 S ,7S ,8aS ,10aR,11R,12S ,14aR,14b S,E)-4-((R)-1-hydroxyethyl)-7-methoxy-1,3,13-trimethyl-6,14-dioxo-3,4,6,7,8,8a,10a,11,12,13,14,14a-dodecahydro-11,14b-epoxynaphtho[2,1-e]oxecine-12-carbonitrile], the MIC in test [1], in test [3], in test [5] and in test [6] was > 128 µg/mL throughout. The IC50 in test [2] (setting [8]) was 25.6 µM; in test [4] (E. coli DnaE IC50) it was > 233 µM.

(Values after patent US9944654B2, “Nargenicin compounds and uses thereof as antibacterial agents” (priority 2014, dated 2018).)
